The supplement of paper PMC10307832

Experiments:
Assay in all cases: relative viability (nuclei count vs DMSO), 5 days (fraction); higher = more cells survive
Omipalisib = compound: COc1ncc(-c2ccc3nccc(-c4ccnnc4)c3c2)cc1NS(=O)(=O)c1ccc(F)cc1F [Omipalisib]
How it was run: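 A plate was accepted only when its control CV was below 25% and the cells had doubled at least once. Viability is defined from nuclear counts as treated wells divided by vehicle wells, with the median taken across plates. That median covers lung cancer cell lines grown in 1536-well plates, dosed by pinning at five √10-spaced library-drug concentrations, and counted in MetaXpress from 4× Hoechst images after 5 days.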

Omipalisib + Olaparib = compound: COc1ncc(-c2ccc3nccc(-c4ccnnc4)c3c2)cc1NS(=O)(=O)c1ccc(F)cc1F [Omipalisib] + O=C(c1cc(Cc2n[nH]c(=O)c3ccccc23)ccc1F)N1CCN(C(=O)C2CC2)CC1 [Olaparib] (partner 8 µM)
How it was run: (§1)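 Relative viability divides the nuclei count in treated wells by that in vehicle wells. Lung cancer cell lines were seeded in 1536-well plates, dosed by pin tool the next day, and fixed and stained after 5 days in one step with final 0.05% Triton X-100, 1% formaldehyde and 1 ug/ml Hoechst. Dosing was a single drug or a fixed anchor-drug dose plus five library-drug doses (not always all listed) in √10 steps, and values are medians of duplicate plates imaged at 4×.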

Omipalisib + AZD7762 = compound: COc1ncc(-c2ccc3nccc(-c4ccnnc4)c3c2)cc1NS(=O)(=O)c1ccc(F)cc1F [Omipalisib] + NC(=O)Nc1cc(-c2cccc(F)c2)sc1C(=O)N[C@H]1CCCNC1 [AZD7762] (partner 0.2 µM)
How it was run: as §1

Omipalisib + Palbociclib = compound: COc1ncc(-c2ccc3nccc(-c4ccnnc4)c3c2)cc1NS(=O)(=O)c1ccc(F)cc1F [Omipalisib] + CC(=O)c1c(C)c2cnc(Nc3ccc(N4CCNCC4)cn3)nc2n(C2CCCC2)c1=O [Palbociclib] (partner 0.5 µM)
How it was run: as §1

Omipalisib + Vorinostat = compound: COc1ncc(-c2ccc3nccc(-c4ccnnc4)c3c2)cc1NS(=O)(=O)c1ccc(F)cc1F [Omipalisib] + O=C(CCCCCCC(=O)Nc1ccccc1)NO [Vorinostat] (partner 1 µM)
How it was run: as §1

Omipalisib + Phenformin = compound: COc1ncc(-c2ccc3nccc(-c4ccnnc4)c3c2)cc1NS(=O)(=O)c1ccc(F)cc1F [Omipalisib] + N=C(N)NC(=N)NCCc1ccccc1 [Phenformin] (partner 250 µM)
How it was run: as §1

Omipalisib + Dasatinib = compound: COc1ncc(-c2ccc3nccc(-c4ccnnc4)c3c2)cc1NS(=O)(=O)c1ccc(F)cc1F [Omipalisib] + Cc1nc(Nc2ncc(C(=O)Nc3c(C)cccc3Cl)s2)cc(N2CCN(CCO)CC2)n1 [Dasatinib] (partner 0.075 µM)
How it was run: as §1

Omipalisib + Pemetrexed = compound: COc1ncc(-c2ccc3nccc(-c4ccnnc4)c3c2)cc1NS(=O)(=O)c1ccc(F)cc1F [Omipalisib] + Nc1nc2[nH]cc(CCc3ccc(C(=O)N[C@@H](CCC(=O)O)C(=O)O)cc3)c2c(=O)[nH]1 [Pemetrexed] (partner 0.2 µM)
How it was run: as §1

Omipalisib + Decitabine = compound: COc1ncc(-c2ccc3nccc(-c4ccnnc4)c3c2)cc1NS(=O)(=O)c1ccc(F)cc1F [Omipalisib] + Nc1ncn([C@H]2C[C@H](O)[C@@H](CO)O2)c(=O)n1 [Decitabine] (partner 2 µM)
How it was run: as §1

Omipalisib + Trametinib = compound: COc1ncc(-c2ccc3nccc(-c4ccnnc4)c3c2)cc1NS(=O)(=O)c1ccc(F)cc1F [Omipalisib] + CC(=O)Nc1cccc(-n2c(=O)n(C3CC3)c(=O)c3c(Nc4ccc(I)cc4F)n(C)c(=O)c(C)c32)c1 [Trametinib] (partner 0.02 µM)
How it was run: as §1

Omipalisib + Luminespib = compound: COc1ncc(-c2ccc3nccc(-c4ccnnc4)c3c2)cc1NS(=O)(=O)c1ccc(F)cc1F [Omipalisib] + CCNC(=O)c1noc(-c2cc(C(C)C)c(O)cc2O)c1-c1ccc(CN2CCOCC2)cc1 [Luminespib] (partner 0.01 µM)
How it was run: as §1

Omipalisib + Tozasertib = compound: COc1ncc(-c2ccc3nccc(-c4ccnnc4)c3c2)cc1NS(=O)(=O)c1ccc(F)cc1F [Omipalisib] + Cc1cc(Nc2cc(N3CCN(C)CC3)nc(Sc3ccc(NC(=O)C4CC4)cc3)n2)n[nH]1 [Tozasertib] (partner 0.1 µM)
How it was run: as §1

Omipalisib + OSI-027 = compound: COc1ncc(-c2ccc3nccc(-c4ccnnc4)c3c2)cc1NS(=O)(=O)c1ccc(F)cc1F [Omipalisib] + COc1cccc2cc(-c3nc([C@H]4CC[C@H](C(=O)O)CC4)n4ncnc(N)c34)[nH]c12 [OSI-027] (partner 0.5 µM)
How it was run: as §1

NCI-H522
relative viability (Omipalisib; 0.0003 µM): 0.838 | relative viability (Omipalisib; 0.003 µM): 0.912 | relative viability (Omipalisib; 0.03 µM): 0.694 | relative viability (Omipalisib + Olaparib; first compound 0.0003 µM): 0.532 | relative viability (Omipalisib + Olaparib; first compound 0.003 µM): 0.614 | relative viability (Omipalisib + Olaparib; first compound 0.03 µM): 0.505 | relative viability (Omipalisib + AZD7762; first compound 0.0003 µM): 0.652 | relative viability (Omipalisib + AZD7762; first compound 0.003 µM): 0.58 | relative viability (Omipalisib + AZD7762; first compound 0.03 µM): 0.839 | relative viability (Omipalisib + Palbociclib; first compound 0.0003 µM): 1.01 | relative viability (Omipalisib + Palbociclib; first compound 0.003 µM): 0.823 | relative viability (Omipalisib + Palbociclib; first compound 0.03 µM): 0.532 | relative viability (Omipalisib + Vorinostat; first compound 0.0003 µM): 0.837 | relative viability (Omipalisib + Vorinostat; first compound 0.003 µM): 0.766 | relative viability (Omipalisib + Vorinostat; first compound 0.03 µM): 0.724 | relative viability (Omipalisib + Phenformin; first compound 0.0003 µM): 0.604 | relative viability (Omipalisib + Phenformin; first compound 0.003 µM): 0.559 | relative viability (Omipalisib + Phenformin; first compound 0.03 µM): 0.583 | relative viability (Omipalisib + Dasatinib; first compound 0.0003 µM): 0.857 | relative viability (Omipalisib + Dasatinib; first compound 0.003 µM): 0.745 | relative viability (Omipalisib + Dasatinib; first compound 0.03 µM): 0.626 | relative viability (Omipalisib + Pemetrexed; first compound 0.0003 µM): 0.963 | relative viability (Omipalisib + Pemetrexed; first compound 0.003 µM): 0.932 | relative viability (Omipalisib + Pemetrexed; first compound 0.03 µM): 0.636 | relative viability (Omipalisib + Decitabine; first compound 0.0003 µM): 0.665 | relative viability (Omipalisib + Decitabine; first compound 0.003 µM): 0.596 | relative viability (Omipalisib + Decitabine; first compound 0.03 µM): 0.595 | relative viability (Omipalisib + Trametinib; first compound 0.0003 µM): 0.746 | relative viability (Omipalisib + Trametinib; first compound 0.003 µM): 0.604 | relative viability (Omipalisib + Trametinib; first compound 0.03 µM): 0.443 | relative viability (Omipalisib + Luminespib; first compound 0.0003 µM): 1.04 | relative viability (Omipalisib + Luminespib; first compound 0.003 µM): 1.89 | relative viability (Omipalisib + Luminespib; first compound 0.03 µM): 0.652 | relative viability (Omipalisib + Tozasertib; first compound 0.0003 µM): 0.515 | relative viability (Omipalisib + Tozasertib; first compound 0.003 µM): 0.451 | relative viability (Omipalisib + Tozasertib; first compound 0.03 µM): 0.438 | relative viability (Omipalisib + OSI-027; first compound 0.0003 µM): 0.69 | relative viability (Omipalisib + OSI-027; first compound 0.003 µM): 0.641 | relative viability (Omipalisib + OSI-027; first compound 0.03 µM): 0.531
